From patent US7261906B2, “Anti-cancer therapy agent of arsenic hexoxide (As4O6) of a natural chemical substance and its pharmaceutical composition” (priority 1998, dated 2007)
Several values for one entry are separate records, joined by “and”; a condition that tells them apart may be missing. Equal values may be shown once. Marks after values point to notes of the source that are not given here.

Experiments:
[1] = Subacute toxicity, oral administration once a day for 4 weeks; assay type: in vivo, Rats (Sprague Dawley strain); conditions: for ALT / ALB / AST / BUN / CHOL / CREAT / Ca / GLU / TB / TG / TP: female rats
Procedure: The subacute toxicity of oral administration of HD-2 was evaluated according to toxicity assessment criteria described in Article 96-8 of Notice on rood and Drug Safety (Apr. 16, 1994). Rats (Sprague Dawley . strain) were used for experiments, as was the case for acute toxicity experiments. […]
Following items were observed during the period of study. • 1) General symptoms: General symptoms, such as anorchism, salivation, diarrhea, vomiting, polyuria, anuria, and fecal change and the severity of these symptoms were evaluated once a day during the study period. • 2) Food consumption: Twice a week, the amount of consumed food and the remaining amount were checked per cage. • 3) Water consumption: Twice a week, the amount of consumed water and the remaining amount were checked per cage. • 4) Weight: Weights were measured twice a week until the end of the study. • 5) Urinalysis: Urine samples were collected during study period from 5 randomly selected rats per study subgroup and appearance, volume, and colors were recorded. Using urinalysis kits (N-multistix of Amersham), pH, gravity, leukocyte, protein, ketone body, urobilinogen, glucose and blood urea nitrogen were measured. • 6) Eye examination: Ophthalmoscopic examination of 5 randomly selected rats per study subgroup was performed to evaluate the external appearance, cornea, and:fundus of the eye. • 7) Hematological and biochemical analysis: Routine blood test was done to measure red blood cell count, white blood cell count, hemoglobin concentration, number of monocytes and lymphocytes, and blood coagulation time. Biochemical analysis of serum was done to measure the activity of […], aspartate transaminase, alkaline phosphate, and albumin. • 8) Size and weight of organs: For every animal studied, weight and size of major organs were measured relative to body weight. Measured organs included liver, kidney, spleen, heart, adrenal gland, brain, thyroid gland, ovary, and testis. • 9) Pathological examination: Organs were fixed in formalin after measurement of weight and size and fixed tissues were cut into […] slices using microtome (AO Rotate Microtome) and stained with hematoxylin and eosin for microscopic study.

[2] = system: N-nitrosodiethylamine (NDEA)-induced tumors in lung and liver; experiment: Carcinogen-induced oncogenesis in liver and lung; assay type: in vivo, mouse (B6C3F1 strain); conditions: for incidence of NDEA-induced hepatic tumor (words): oral HD-2, FIG. 6
Procedure: To examine the inhibitory effect of HD-2 on carcinogen-induced oncogenesis, N-nitrosodiethylamine (NDEA) was injected as a carcinogen into peritoneal cavity of mouse (B6C3F1 strain) at a concentration of 90 mg per kg body weight to induce cancer. At 2, 4, 8, 16, and 32 weeks after carcinogen injection, […] of HD-2 was administered orally and the same amount of distilled water was injected into control group. Forty-two weeks after NDEA treatment, mice were sacrificed to measure the incidence and the size of tumors formed in lung and liver. […] The incidence of NDEA-induced hepatic tumor was above 90%, but following HD-2 administration, the incidence was lowered to 5 to 22%, despite of variation depending on the period of HD-2 administration. Thus HD-2 inhibited carcinogen-induced oncogenesis in liver by 78 to 95. […] In lung, the inhibitory effect of HD-2 on reducing carcinogen-induced oncogenesis was not so dramatic as in liver. However, if HD-2 was given at 4 weeks after NDEA injection, carcinogen-induced oncogenesis was inhibited by 30%.

[3] = system: cloned tumor cells of mice and human beings; experiment: Direct cytotoxicity of HD-2 relative to cisplatin over the clones; assay type: cell-based; conditions: 48 hours of incubation, mean over clones of Table 5
Procedure: Cloned tumor cells of P388 leukemia, L1210 leukemia, L5178Y lymphoma, Colon26-M3.1 carcinoma, and B16-BL6 melanoma, from mice, and K562 leukemia, liver carcinoma HEP-G2, Hs578T breast cancer, AN-3-CA adenocarcinoma, DLD colon carcinoma, and HeLa epitheloid carcinoma, from human beings, were cultured in EMM, DMEM, or RMPI-1640 culture media containing 7.5% fetal bovine serum (FBS), as described in ATCC manual. […] Tumor cells in test wells were incubated in 5% CO2 incubator at 37° C. for 2 days.

[4] = system: B16-BL6 melanoma cells; experiment: Inhibitory effect of orally-administered HD-2 on cancer metastasis (lung); assay type: in vivo, mice
Source text: (§1) B16-BL6 melanoma cells or colon26-M3.1 carcinoma cells were inoculated into mice and number of metastatic tumor masses appearing in lungs was counted. […] The peak activity was observed a: 1-mg dose with very high anticancer efficacy (86%). […] This indicated oral administration of HD-2 was quite effective for treatment of established cancer.

[5] = system: colon26-M3.1 carcinoma cells; experiment: Inhibitory effect of intravenously-administered HD-2 on cancer metastasis (lung); assay type: in vivo, mice
Procedure: as §1
In this experiment, HD-2 was administered intravenously with dosage less than 500 mg/kg body weight per day.

[6] = 1 μg intravenous administration +1
[7] = 10 μg intravenous administration +1
[8] = 10 μg intravenous administration +7
[9] = 100 μg intravenous administration +1

O1[As]2O[As]3O[As]1O[As](O2)O3 [HD-2, arsenic hexoxide (As4O6)]
ALT ([1]; High 100 mg/kg/day oral): 29.67 μ/l | ALB ([1]; High 3.0 g/kg/day oral): 3.33 g/dL | AST ([1]; High 3.0 g/kg/day oral): 77.87* μ/l | BUN ([1]; High 3.0 g/kg/day oral): 13.13 mg/dL | CHOL ([1]; High 3.0 g/kg/day oral): 44.33 mg/dL | CREAT ([1]; High 3.0 g/kg/day oral): 0.47 mg/dL | Ca ([1]; High 3.0 g/kg/day oral): 8.73 mg/dL | GLU ([1]; High 3.0 g/kg/day oral): 63.03 mg/dL | TB ([1]; High 3.0 g/kg/day oral): 0.18 mg/dL | TG ([1]; High 3.0 g/kg/day oral): 62.33 mg/dL | TP ([1]; High 3.0 g/kg/day oral): 5.93 g/dL | ALB ([1]; Low 0.03 g/kg/day oral): 3.60 g/dL | ALT ([1]; Low 0.03 g/kg/day oral): 27.10 μ/l | AST ([1]; Low 0.03 g/kg/day oral): 70.10* μ/l | BUN ([1]; Low 0.03 g/kg/day oral): 11.43 mg/dL | CHOL ([1]; Low 0.03 g/kg/day oral): 42.33 mg/dL | CREAT ([1]; Low 0.03 g/kg/day oral): 0.40 mg/dL | Ca ([1]; Low 0.03 g/kg/day oral): 8.77 mg/dL | GLU ([1]; Low 0.03 g/kg/day oral): 67.70 mg/dL | TB ([1]; Low 0.03 g/kg/day oral): 0.14 mg/dL | TG ([1]; Low 0.03 g/kg/day oral): 50.00 mg/dL | TP ([1]; Low 0.03 g/kg/day oral): 6.27 g/dL | ALB ([1]; Medium 0.3 g/kg/day oral): 3.70 g/dL | ALT ([1]; Medium 0.3 g/kg/day oral): 27.00 μ/l | AST ([1]; Medium 0.3 g/kg/day oral): 87.53 μ/l | BUN ([1]; Medium 0.3 g/kg/day oral): 13.18 mg/dL | CHOL ([1]; Medium 0.3 g/kg/day oral): 40.50 mg/dL | CREAT ([1]; Medium 0.3 g/kg/day oral): 0.53 mg/dL | Ca ([1]; Medium 0.3 g/kg/day oral): 8.95 mg/dL | GLU ([1]; Medium 0.3 g/kg/day oral): 70.00 mg/dL | TB ([1]; Medium 0.3 g/kg/day oral): 0.16 mg/dL | TG ([1]; Medium 0.3 g/kg/day oral): 56.25 mg/dL | TP ([1]; Medium 0.3 g/kg/day oral): 6.53 g/dL | kidney pathology: hemosiderin in and atrophy of proximal tubular epithelium ([1]; high-dose group (100 mg/kg body weight), 4 weeks): observed to a slight degree | kidney pathology ([1]; medium-dose group, 4 weeks): no such pathology was observed | Hematological and biochemical study vs control groups ([1]; oral, once a day for 4 weeks): did not reveal any significant difference | clinical symptoms incl. changes in weight and consumption of food and water ([1]; oral, once a day for 4 weeks): no specific clinical symptom | urinalysis and eye examination ([1]; oral, once a day for 4 weeks): any significant abnormality was not observed | fatal cases ([1]; oral, once a day for 4 weeks, 1, 10, 100 mg per kg body weight): fatal cases were not observed | incidence of NDEA-induced lung cancer ([2]; FIG. 7): decreases the incidence of lung cancer | inhibition of carcinogen-induced oncogenesis in lung ([2]; HD-2 given at 4 weeks after NDEA injection): 30% | number of tumor masses in lung ([2]; HD-2 group, FIG. 7): about 2 | spontaneous cancers of lung ([2]; oral HD-2): completely suppressed | spontaneous hepatoma ([2]; oral HD-2): inhibited spontaneous hepatoma completely | incidence of NDEA-induced hepatic tumor (words) [2]: effectively inhibited | incidence of NDEA-induced hepatic tumor (words) ([2]; listed as As4O6): decreases hepatoma incidence | direct cytotoxicity, times as high as cisplatin [3]: 50 times | inhibitory rate ([4]; 0.1 mg oral administration +1): 38.5% | number of metastatic masses, mean ±SD ([4]; 0.1 mg oral administration +1): 75 ± 28 | inhibitory rate ([4]; 0.1 mg oral administration +7): 41.4% | number of metastatic masses, mean ±SD ([4]; 0.1 mg oral administration +7): 95 ± 23 | inhibitory rate ([4]; 1 mg oral administration +1): 86% and 86.1% | number of metastatic masses, mean ±SD ([4]; 1 mg oral administration +1): 17 ± 9 | inhibitory rate ([4]; 1 mg oral administration +7): 70% and 70.4% | number of metastatic masses, mean ±SD ([4]; 1 mg oral administration +7): 48 ± 19 | inhibitory rate ([4]; 10 mg oral administration +1): 63.1% | inhibitory rate ([4]; 10 mg oral administration +7): 66.1% | number of metastatic masses, mean ±SD ([4]; 10 mg oral administration +7): 55 ± 13 | number of metastatic masses, mean ±SD ([4]; 10 mg oral administration +1 day after inoculation): 45 ± 25 | anti-metastatic effect compared to the control group ([4]; oral administration, 0.1 to 10 mg): significant anti-metastatic effect | inhibitory rate [5, 6]: 66.5% | number of metastatic mass, mean ± SD [5, 6]: 52 ± 28 | inhibitory rate [5, 7]: 92.9% | number of metastatic mass, mean ± SD [5, 7]: 11 ± 19 | inhibitory rate [5, 8]: 67.5% | number of metastatic mass, mean ± SD [5, 8]: 50 ± 11 | inhibitory rate [5, 9]: 90.3% | number of metastatic mass, mean ± SD [5, 9]: 15 ± 15 | anti-metastatic efficacy ([5]; 10- to 100-μg intravenous): above 90%
